The results in this text go back to the supplement of paper PMC3974653.

This experiment has as its system MTT (mouse pheochromocytoma). Description: IC50 of cell viability (ATP content). Conditions: (24 or 48 h). Summed up: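 MTT mouse pheochromocytoma cells in white 1536-well plates were treated for 24 or 48 hrs with library compounds at 8 final concentrations from 0.5 nM to 46 µM. ATP content was measured with CellTiter-Glo luminescence, using positive-control wells as 100% and DMSO wells as 0%. IC50 came from a four-parameter logistic fit.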

Counter-ions that a name gives are not always drawn.

Take `OC[C@@H]1CC[C@H](n2cnc3c(O)ncnc32)O1` [Didanosine]: the “IC50 of cell viability” value is more than 46 µM.

Consider `Cc1ncc(COP(=O)(O)O)c(C=O)c1O` [PYRIDOXAL PHOSPHATE], for which the “IC50 of cell viability” value is more than 46 µM.

As to `CCCSc1cc(OC)c(CCN)cc1OC`, the “IC50 of cell viability” value was more than 46 µM.

With `C#CCN(C)[C@@H](C)Cc1ccccc1` [Selegiline hydrochloride], the “IC50 of cell viability” value is more than 46 µM.

For the molecule `COc1cc(Cc2cnc(N)nc2N)cc(OC)c1OC` [Trimethoprim], the “IC50 of cell viability” value was more than 46 µM.

Regarding `Cn1c(=O)c2[nH]cnc2n(C)c1=O` [OXTRIPHYLLINE], the “IC50 of cell viability” value was more than 46 µM.

Regarding `C[C@]12CC[C@H]3[C@@H](C\C=C/4C[C@@H](O)CC[C@]34C)[C@@H]1CCC2=O` [Prasterona], the “IC50 of cell viability” value was more than 46 µM.

Regarding `N[S+](=O)([O-])c1cc2c(cc1C(F)(F)F)N[C@H](Cc1ccccc1)N[S+]2(=O)[O-]` [Bendroflumethiazide], the “IC50 of cell viability” value was more than 46 µM.

`C[C@]12CCC3[C@@H](CCC4=CC(=O)CC[C@@]43C)C1CCC2OC(=O)CCc1ccccc1` (stereo partly specified) [Testosterone 17-phenylpropionate]: the “IC50 of cell viability” value was more than 46 µM.

`COC(=O)C1C(OC(=O)c2ccccc2)CC2CCC1N2C` (single isomer, unassigned; (-)) [(-)-Cocaine]: the “IC50 of cell viability” value was more than 46 µM.

Turning to `COc1ccc(/C=N/NC(=O)c2ccncc2)c(C(=O)O)c1OC` [Opiniazida], the “IC50 of cell viability” value is more than 46 µM.

With `N[C@@H](Cc1ccc(N(CCCl)CCCl)cc1)C(=O)O` [Melphalan], the “IC50 of cell viability” value was more than 46 µM.

Take `CC1OC(O[C@H]2C[C@@H](O)[C@]3(CO)[C@H]4[C@H](O)C[C@]5(C)[C@@H](C6=CC(=O)OC6)CC[C@]5(O)[C@@H]4CC[C@]3(O)C2)C(O)C(O)C1O` (stereo partly specified) [OUABAIN]: the “IC50 of cell viability” value was more than 46 µM.

For the molecule `O=C(CCCN1CCN(c2ccccn2)CC1)c1ccc(F)cc1` [Azaperone], the “IC50 of cell viability” value was more than 46 µM.

`CCCCCCCC(=O)OCC(O)CO` (stereo unspecified) [MONOCTANOIN]: the “IC50 of cell viability” value is more than 46 µM.

With `CCN(CC)CCNC(=O)c1cc(Br)c(N)cc1OC` [BROMOPRIDE], the “IC50 of cell viability” value is more than 46 µM.

For `CC(C)C[C@H](NC(=O)[C@@H](O)[C@H](N)Cc1ccccc1)C(=O)O.Cl` [Bestatin hydrochloride], the “IC50 of cell viability” value was more than 46 µM.

Consider `Sc1nc2ccccc2s1` [2-Mercaptobenzothiazole], for which the “IC50 of cell viability” value is more than 46 µM.

As to `C#C[C@]1(O)CC[C@H]2[C@@H]3CCC4=CC(=O)CCC4(C)[C@H]3CCC21C` (stereo partly specified) [ETHISTERONUM], the “IC50 of cell viability” value is more than 46 µM.

For the molecule `CN(Cc1ccc(C(C)(C)C)cc1)Cc1cccc2ccccc12` [Butenafina], the “IC50 of cell viability” value is more than 46 µM.

`CNCC(=O)NC(CCCNC(=N)N)C(=O)NC(C(=O)NC(Cc1ccc(O)cc1)C(=O)NC(C(=O)NC(Cc1cnc[nH]1)C(=O)N1CCCC1C(=O)NC(C)C(=O)O)C(C)C)C(C)C` (stereo unspecified) [SARALASIN ACETATE]: the “IC50 of cell viability” value was more than 46 µM.

As to `O=P1(N(CCCl)CCCl)NC(OO)CCO1` (stereo unspecified) [4-Hydroperoxy Cyclophosphamide], the “IC50 of cell viability” value was more than 46 µM.

On to `CCCCC1(COC(=O)CCC(=O)O)C(=O)N(c2ccccc2)N(c2ccccc2)C1=O` [Suxibuzone], for which the “IC50 of cell viability” value was more than 46 µM.

Regarding `CCC(Oc1ccccc1)C(=O)NC1C(=O)N2C1SC(C)(C)C2C(=O)[O-]` (stereo unspecified) [Propicillin], the “IC50 of cell viability” value is more than 46 µM.

Turning to `CCOC(=O)CC(SP(=S)(OC)OC)C(=O)OCC` (stereo unspecified) [MALATHION], the “IC50 of cell viability” value is more than 46 µM.

Regarding `COP(=O)(OC)OC=C(Cl)Cl` [Dichlorvos (Vapona)], the “IC50 of cell viability” value is more than 46 µM.

Regarding `S=C(SSC(=S)N1CCCCC1)N1CCCCC1` [Dicyclopentamethylenethiuram disulfide], the “IC50 of cell viability” value is more than 46 µM.

For `NCCO/C=C/C(N)C(=O)O` (stereo unspecified), the “IC50 of cell viability” value is more than 46 µM.

Turning to `C[N+]1(CC2COC(c3ccccc3)(c3ccccc3)O2)CCCCC1` (stereo unspecified) [DIPHENYLPIPERIDINOMETHYLDIOXOLAN IODIDE (Anacolin)], the “IC50 of cell viability” value was more than 46 µM.

As to `C=C1CC[C@H](O)C/C1=C/C=C1\CCC[C@]2(C)[C@@H]([C@H](C)CCCC(C)C)CC[C@@H]12` [CHOLECALCIFEROL], the “IC50 of cell viability” value is more than 46 µM.

For the molecule `CC(C)CC1C(=O)N2CCCC2C2(O)OC(NC(=O)C3CC4c5cccc6[nH]cc(c56)CC4N(C)C3)(C(C)C)C(=O)N12` (stereo unspecified) [Dihydroergocriptine], the “IC50 of cell viability” value was more than 46 µM.

For `C[C@]\12CCC(=O)\C=C1CC[C@H]3[C@@H]4CC[C@](O)(C(=O)CO)[C@@]4(C)C[C@H](O)[C@H]23` [HYDROCORTISONE], the “IC50 of cell viability” value was more than 46 µM.

Take `O=P(O)(O)C(O)(Cc1cnc2ccccn12)P(=O)(O)O` [Minodronic acid]: the “IC50 of cell viability” value is more than 46 µM.

As to `C#C[C@]1(OC(C)=O)CC[C@H]2[C@@H]3CCC4=C/C(=N/O)CC[C@@H]4[C@H]3CC[C@@]21CC` [NORGESTIMATE], the “IC50 of cell viability” value is more than 46 µM.

As for `CC/C=C\C/C=C\C/C=C\CCCCCCCC(=O)O` [LINOLENIC ACID], the “IC50 of cell viability” value is more than 46 µM.

As to `Nc1ccc(O)cc1` [p-Aminophenol], the “IC50 of cell viability” value was more than 46 µM.

Consider `CCCCCCCCCCOc1cc2c(O)c(C(=O)OCC)cnc2cc1OCC` [DECOQUINATE], for which the “IC50 of cell viability” value is more than 46 µM.

As to `Nc1cccc2c(N)cccc12` [1,5-Diaminonaphthalene], the “IC50 of cell viability” value was more than 46 µM.

For the molecule `CC(=O)[C@]1(O)Cc2c(O)c3c(c(O)c2[C@@H](O[C@H]2C[C@H](N)[C@H](O)[C@H](C)O2)C1)C(=O)c1ccccc1C3=O` [IDARUBICIN HYDROCHLORIDE], the “IC50 of cell viability” value was more than 46 µM.

In the case of `O=C([O-])c1ccccc1O` [ZINC SALICYLATE], the “IC50 of cell viability” value was more than 46 µM.

Take `CC(C)COC(=O)c1ccc(N)cc1` [Isobutamben]: the “IC50 of cell viability” value was more than 46 µM.

For `CCC(=O)c1c(O)cc(O)cc1O` [FLOPROPIONE], the “IC50 of cell viability” value is more than 46 µM.

Consider `CO/N=C(\C(=O)N[C@@H]1C(=O)N2C(C(=O)[O-])=C(C[n+]3cccc4c3CCCC4)CS[C@H]12)c1csc(N)n1` [CEFQUINOME sulfate], for which the “IC50 of cell viability” value is more than 46 µM.

`CCCN1CCCC[C@H]1C(=O)Nc1c(C)cccc1C` [ROPIVACAINE HYDROCHLORIDE MONOHYDRATE]: the “IC50 of cell viability” value was more than 46 µM.

As to `NC(=O)NC(=O)Cc1ccccc1` [PHENACEMIDE], the “IC50 of cell viability” value is more than 46 µM.

Consider `CCOc1ccc(S(=O)(=O)O)c2cccnc12` [Actinoquinolum], for which the “IC50 of cell viability” value was more than 46 µM.

As to `O=C(OCc1ccccc1)c1ccccc1` [Benzyl benzoate], the “IC50 of cell viability” value was more than 46 µM.

With `O=[S+]([O-])(O)c1cc(I)c(O)c2ncccc12` [CHINIOFONUM], the “IC50 of cell viability” value is more than 46 µM.

Consider `CCCOC(=O)c1ccc(O)cc1` [Propyl-4-hydroxybenzoate], for which the “IC50 of cell viability” value was more than 46 µM.

Turning to `CN1C2CCC1C(C(=O)O)C(OC(=O)c1ccccc1)C2` (stereo unspecified) [BENZOYLECGONINE], the “IC50 of cell viability” value is more than 46 µM.

As to `CCOC(=O)C(CCc1ccccc1)NC1CSC(c2cccs2)CN(CC(=O)O)C1=O` (stereo unspecified) [TEMOCAPRIL HYDROCHLORIDE], the “IC50 of cell viability” value was more than 46 µM.

Take `Clc1ccc(CS[C@@H](Cn2ccnc2)c2ccc(Cl)cc2Cl)cc1` [Sulconazole nitrate]: the “IC50 of cell viability” value is more than 46 µM.

On to `CCN(CC)C(=O)[C@@]1(c2ccccc2)C[C@@H]1CN` [MILNACIPRAN], for which the “IC50 of cell viability” value is more than 46 µM.

Turning to `O=C(O)Cn1c(C(=O)Nc2nc(-c3ccccc3Cl)cs2)cc2ccccc21` [LINTITRIPTUM], the “IC50 of cell viability” value is more than 46 µM.

Regarding `C#CCOC(C(=O)OCCN(C)C)(c1ccccc1)c1ccccc1` [PARGEVERINUM], the “IC50 of cell viability” value was more than 46 µM.

As for `CN1CCN(CC1)\C2=N\C3=C(OC4=C2C=C(Cl)C=C4)C=CC=C3.OC(=O)CCC(O)=O` [Loxapine succinate], the “IC50 of cell viability” value was more than 46 µM.

Consider `CCN(CC)Cc1nccn1-c1ccc([N+](=O)[O-])cc1C(=O)c1ccccc1Cl` [Nizofenone], for which the “IC50 of cell viability” value was more than 46 µM.

As for `CN[C@H]1[C@H](O[C@@H]2O[C@@H](CO)[C@H](N)[C@H](O)[C@@H]2O)O[C@H]2C[C@@H](N)[C@@H](O[C@H]3[C@H](O)[C@H](O)[C@H](N)C[C@@H]3N)O[C@@H]2[C@H]1O` [Apramycin], the “IC50 of cell viability” value is more than 46 µM.

For the molecule `C1C\N=C(\NC(C2CC2)C3CC3)O1` [RILMENIDINE], the “IC50 of cell viability” value was more than 46 µM.

Take `O=C(/C=C/c1cccc(F)c1)NC1CC1` [Cinflumide]: the “IC50 of cell viability” value is more than 46 µM.

With `CC(=O)NO` [ACETOHYDROXAMIC ACID], the “IC50 of cell viability” value is more than 46 µM.

For the molecule `C[C@]12C=CC(=O)C=C1CC[C@@H]1[C@@H]2CC[C@@]2(C)[C@H]1CC[C@]2(C)O` [Metandienona], the “IC50 of cell viability” value was more than 46 µM.

Regarding `O=C1CC2(CCCC2)CC(=O)N1CCNCC1COc2ccccc2O1` (stereo unspecified), the “IC50 of cell viability” value is more than 46 µM.

Consider `CC(=O)OCC(=O)[C@@]12OC3(CCCC3)OC1CC4C5CCC/6=C/C(=O)/C=C\[C@@]6(C)[C@]5(F)C(O)C[C@@]24C` (stereo partly specified) [AMCINONIDE], for which the “IC50 of cell viability” value was more than 46 µM.

Regarding `O=C(CCC1CCN(Cc2ccccc2)CC1)c1ccc2c(c1)NCCCC2` [ZANAPEZIL FUMARATE], the “IC50 of cell viability” value is more than 46 µM.

For the molecule `CCC(C(=O)NC(=O)NC(C)=O)c1ccccc1` (stereo unspecified) [ACETYLPHENETURIDE (CRAMPOL)], the “IC50 of cell viability” value was more than 46 µM.
